# Test results reported in ChEMBL document CHEMBL1649413, “Structure-activity relationship of 4(5)-aryl-2-amino-1H-imidazoles, N1-substituted 2-aminoimidazoles and imidazo[1,2-a]pyrimidinium salts as inhibitors of biofilm formation by Salmonella typhimurium and Pseudomonas aeruginosa” (J Med Chem, 2011).
# pIC50: −log10 of the molar value. Active and inactive are the calls of the source. No cut-off for these calls is given here.
# What was measured:
# [1] = test system: Salmonella typhimurium; test: Antimicrobial activity against Salmonella Typhimurium ATCC 14028 assessed as inhibition of planktonic growth at 400 uM at 25 degC after 24 hrs; assay type: functional, organism-based; conditions: Salmonella enterica subsp. enterica serovar Typhimurium
# [2] = test system: Salmonella typhimurium; test: Antibiofilm activity in Salmonella Typhimurium ATCC 14028 assessed as inhibition of biofilm formation at 25 degC after 24 hrs; assay type: functional, organism-based, Salmonella enterica subsp. enterica serovar Typhimurium; conditions: Salmonella enterica, ATCC 14028, 24 h
# [3] = test system: Salmonella typhimurium; test: Antimicrobial activity against Salmonella Typhimurium ATCC 14028 assessed as inhibition of planktonic growth at 20 uM at 25 degC after 24 hrs; assay type: functional, organism-based; conditions: Salmonella enterica subsp. enterica serovar Typhimurium
# [4] = test system: Salmonella typhimurium; test: Antimicrobial activity against Salmonella Typhimurium ATCC 14028 assessed as inhibition of planktonic growth at 10 uM at 25 degC after 24 hrs; assay type: functional, organism-based; conditions: Salmonella enterica subsp. enterica serovar Typhimurium
# [5] = test system: Pseudomonas aeruginosa; test: Antibiofilm activity in Pseudomonas aeruginosa assessed as inhibition of biofilm formation at 25 degC after 24 hrs; assay type: functional, organism-based
# [6] = test system: Pseudomonas aeruginosa; test: Antimicrobial activity against Pseudomonas aeruginosa assessed as inhibition of planktonic growth at 20 uM at 25 degC after 24 hrs; assay type: functional, organism-based
# [7] = test system: Pseudomonas aeruginosa; test: Antimicrobial activity against Pseudomonas aeruginosa assessed as inhibition of planktonic growth at 40 uM at 25 degC after 24 hrs; assay type: functional, organism-based
pIC50 [2],pIC50 [5],SMILES,inhibition [1],further results
–,–,CN(C)c1ncccn1,inactive,–
–,–,Cc1cccc(Nc2ncccn2)c1,inactive,–
–,–,CCCCNc1ncccn1,inactive,–
4.92,4.49,CCCCCCn1c(-c2ccc(-c3ccccc3)cc2)cnc1N,–,inhibition [3]: Active; inhibition [4]: Active
5.07,5.92,CCCCCCCCn1c(-c2ccc(OC)cc2)cnc1N,–,inhibition [3]: Active; inhibition [4]: inactive; inhibition [6]: inactive
–,–,CCCCCCCCCCCNc1ncccn1,inactive,–
–,–,c1ccc(Nc2ncccn2)cc1,inactive,–
–,–,CCCCCNc1ncccn1,inactive,–
–,–,c1cnc(NCc2ccc3c(c2)OCO3)nc1,inactive,–
–,–,CCCCCCCCCCCCCNc1ncccn1,inactive,–
4.24,4.78,CCCCn1c(-c2ccc(Cl)cc2)cnc1N,–,inhibition [7]: inactive; inhibition [6]: inactive
–,–,Cc1ccc(CNc2ncccn2)c(C)c1,inactive,–
3.69,4.68,CCn1c(-c2ccccc2)cnc1N,–,inhibition [7]: inactive; inhibition [6]: inactive
–,–,CCCCCCCCCCCCCCNc1ncccn1,inactive,–
–,–,COc1ccc(CCNc2ncccn2)cc1,inactive,–
–,–,c1cnc(NC2CCCCCCC2)nc1,inactive,–
4.15,4.90,Nc1ncc(-c2ccccc2)n1C1CCCC1,–,inhibition [6]: inactive
–,–,C#CCN(C)c1ncccn1,inactive,–
–,–,CC(C)(C)[Si](C)(C)Oc1ccc(CNc2ncccn2)cc1,inactive,–
–,–,C=CCNc1ncccn1,inactive,–
–,–,c1cnc(NC2CCCCCC2)nc1,inactive,–
–,–,c1cnc(NC2CCCCC2)nc1,inactive,–
–,–,CCCCCCCNc1ncccn1,inactive,–
–,–,CCCNc1ncccn1,inactive,–

pIC50 [2],pIC50 [5],SMILES,inhibition [1],further results
–,–,COc1cccc(Nc2ncccn2)c1,inactive,–
4.26,4.89,Nc1ncc(-c2ccc(Cl)cc2)n1C1CC1,–,inhibition [6]: inactive
–,–,Cc1ccc(CNc2ncccn2)cc1,inactive,–
4.22,< 3.40,CCCCCCCCCCCn1c(-c2ccc(-c3ccccc3)cc2)cnc1N,–,–
–,–,c1ccc(CNc2ncccn2)cc1,inactive,–
3.94,3.43,CCCCn1c(-c2ccc([N+](=O)[O-])cc2)cnc1N,–,–
–,–,c1cnc(NC2CC2)nc1,inactive,–
–,–,CCCCCCNc1ncccn1,inactive,–
–,–,CCNc1ncccn1,inactive,–
–,–,Brc1ccccc1Nc1ncccn1,inactive,–
–,–,c1cnc(NC2CCC2)nc1,inactive,–
3.44,< 3.10,CC(C)n1c(-c2ccc([N+](=O)[O-])cc2)cnc1N,–,–
–,–,CCCCCCCCNc1ncccn1,inactive,–
–,–,CCCCCCCCCCNc1ncccn1,inactive,–
–,–,c1cnc(NC2CCCC2)nc1,inactive,–
–,–,CCCCCCCCCNc1ncccn1,inactive,–
4.26,4.58,Nc1ncc(-c2ccccc2)n1Cc1ccccc1,–,–
–,–,c1cnc(NC2CCCCCCCCCCC2)nc1,inactive,–
–,–,CCCCCCCCCCCCNc1ncccn1,inactive,–
3.92,3.73,COc1ccc(-c2cnc(N)[nH]2)cc1,–,–
4.05,4.46,Nc1ncc(-c2ccccc2)n1C1CC1,–,–
3.07,< 3.10,CCCCCCCCn1c(-c2ccc(-c3ccc(-c4ccccc4)cc3)cc2)cnc1N,–,–
4.21,4.50,Cc1ccc(-c2cnc(N)n2C)cc1,–,–
4.40,4.72,CCCCCCn1c(-c2ccccc2)cnc1N,–,inhibition [7]: inactive; inhibition [6]: inactive
